Reference: publication PMC12072072 (International Journal of Molecular Sciences, 2025)

Tests used:
[1] = system: SKOV-3 (human ovarian carcinoma); conditions: MTT assay, SKOV-3 cells; published earlier; ref [41]; read-out: IC50 [μM] (±s) SKOV-3; cited from earlier work
[2] = system: CHO (Chinese hamster ovary); assay: MTT assay, CHO cells; type: cell-based; conditions: Cricetulus griseus, CHO, MTT assay, CHO cells, value (standard deviation); read-out: IC50 [μM] (±s) CHO
Description: Each medium was supplemented with 10% fetal bovine serum, 1% L-glutamine, and 1% penicillin/streptomycin solution. The cell lines were incubated at 37 °C in a humidified atmosphere containing 5% CO2. Cells were counted using the Fuchs–Rosenthal counting chamber (hemocytometer) with modifications.
The final product of this reaction gives violet formazan crystals. The number of live cells is proportional to the amount of formazan and is represented by the violet dye reagent. The details of the experiments are given, e.g., in [54].
Statistical analyses for the cytotoxic activity were carried out using the nonparametric Kruskal–Wallis H test for unpaired data and ANOVA Friedman two-way analysis of variance test for paired data. Statistical significance was tested using Dunn’s post-hoc test. The IC50 values compared to the control IC50 were calculated using GraphPad Prism v. 10.1.1. software.

[3] = system: HDFs (human dermal fibroblasts); conditions: MTT assay, published earlier, ref [41], read-out: IC50 [μM] (±s) HDFs; cited from earlier work

In the case of `CC1(C)CC[C@]2(C(=O)O)CC[C@]3(C)C(=CC[C@@H]4[C@@]5(C)CC[C@H](O)C(C)(C)[C@@H]5CC[C@]43C)[C@@H]2C1` [Compound 1, oleanolic acid], the IC50 [1] is given as 18.8 µM, the IC50 [2] is given as 9.16 µM and the IC50 [3] is given as 24.9 µM.
